Earlier results in patent US9572894B2, “Biodegradable particulate formulations” (The University of Iowa Research Foundation, priority 2010, dated 2017).

Tested on: gliomas
Settings: ten daily i.t. injections

## COc1cccc2c1C(=O)c1c(O)c3c(c(O)c1C2=O)C[C@@](O)(C(=O)CO)C[C@@H]3O[C@H]1C[C@H](N)[C@H](O)[C@H](C)O1 [doxorubicin]
  reported toxicity: limited to headache
  subjects with local regression: six of the ten
